Each block holds one molecule with its values, some of them ahead of it. Calls of active or inactive are those of the source. No cut-off for these calls is given here.
Legend:
[1] = biological target: T1, von Hippel-Lindau disease tumor suppressor/Focal adhesion kinase 1 (Homo sapiens, UniProt Q05397+P40337); assay: Protac activity at VHL/PTK2 in human SK-HEP1 cells assessed as induction of PTK2 degradation incubated for 18 hrs by protein capillary electrophoresis method; format: cell-based
Target sequence in this assay (Q05397 whole entry): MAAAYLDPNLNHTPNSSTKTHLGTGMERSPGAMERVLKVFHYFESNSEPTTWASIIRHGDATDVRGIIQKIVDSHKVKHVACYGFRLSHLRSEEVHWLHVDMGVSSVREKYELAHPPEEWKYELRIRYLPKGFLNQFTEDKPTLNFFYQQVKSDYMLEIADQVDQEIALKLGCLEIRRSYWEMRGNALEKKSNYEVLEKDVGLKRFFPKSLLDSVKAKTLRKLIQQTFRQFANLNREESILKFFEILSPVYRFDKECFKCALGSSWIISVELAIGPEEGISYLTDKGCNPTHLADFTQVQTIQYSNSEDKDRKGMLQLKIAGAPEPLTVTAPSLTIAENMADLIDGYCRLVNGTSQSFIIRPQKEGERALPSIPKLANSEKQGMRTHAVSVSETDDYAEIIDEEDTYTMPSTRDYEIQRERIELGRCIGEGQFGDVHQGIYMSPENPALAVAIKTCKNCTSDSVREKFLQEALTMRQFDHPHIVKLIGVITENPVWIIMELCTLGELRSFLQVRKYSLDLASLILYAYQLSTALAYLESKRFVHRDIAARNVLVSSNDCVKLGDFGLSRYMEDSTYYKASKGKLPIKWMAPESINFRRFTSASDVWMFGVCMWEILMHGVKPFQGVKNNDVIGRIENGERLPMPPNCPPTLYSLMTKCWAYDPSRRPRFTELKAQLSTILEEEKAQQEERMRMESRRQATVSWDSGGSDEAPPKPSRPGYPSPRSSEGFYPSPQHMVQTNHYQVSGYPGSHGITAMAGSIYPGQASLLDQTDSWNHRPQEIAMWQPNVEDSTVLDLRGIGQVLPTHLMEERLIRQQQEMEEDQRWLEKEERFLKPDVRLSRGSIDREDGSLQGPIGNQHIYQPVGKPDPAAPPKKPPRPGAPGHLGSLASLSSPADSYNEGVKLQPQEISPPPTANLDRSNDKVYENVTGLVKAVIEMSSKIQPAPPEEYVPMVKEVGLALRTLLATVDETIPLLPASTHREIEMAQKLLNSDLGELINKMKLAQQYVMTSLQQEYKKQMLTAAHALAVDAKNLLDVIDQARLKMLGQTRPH
Target sequence in this assay (P40337 whole entry): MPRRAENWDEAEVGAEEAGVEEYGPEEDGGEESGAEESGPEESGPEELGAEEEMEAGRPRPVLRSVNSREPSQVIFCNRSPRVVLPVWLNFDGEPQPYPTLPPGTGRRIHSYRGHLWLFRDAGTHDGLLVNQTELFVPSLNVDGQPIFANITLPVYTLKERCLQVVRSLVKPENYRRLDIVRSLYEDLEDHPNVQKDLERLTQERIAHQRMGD

[2] = biological target: T1, von Hippel-Lindau disease tumor suppressor/Focal adhesion kinase 1; assay: Protac activity at VHL/PTK2 in human Hep3B2.1-7 cells assessed as time required for maximal induction of PTK2 degradation at 3 uM incubated for up to 80 hrs by protein capillary electrophoresis method; details: time hrs <=80
[3] = biological target: T1, von Hippel-Lindau disease tumor suppressor/Focal adhesion kinase 1; assay: Protac activity at VHL/PTK2 in human HLE cells assessed as induction of PTK2 degradation incubated for 18 hrs by protein capillary electrophoresis method; format: cell-based
Target sequence in this assay (Q05397 whole entry): as the sequence (Q05397 whole entry) above
Target sequence in this assay (P40337 whole entry): as the sequence (P40337 whole entry) above

[4] = biological target: T1, von Hippel-Lindau disease tumor suppressor/Focal adhesion kinase 1; assay: Protac activity at VHL/PTK2 in human Huh-7 cells assessed as induction of PTK2 degradation incubated for 18 hrs by protein capillary electrophoresis method relative to control; format: cell-based
[5] = biological target: T1, von Hippel-Lindau disease tumor suppressor/Focal adhesion kinase 1; assay: Protac activity at VHL/PTK2 in human SNU-423 cells assessed as induction of PTK2 degradation incubated for 18 hrs by protein capillary electrophoresis method relative to control; format: cell-based
[6] = biological target: T1, von Hippel-Lindau disease tumor suppressor/Focal adhesion kinase 1; assay: Protac activity at VHL/PTK2 in human HLE cells assessed as induction of PTK2 degradation incubated for 18 hrs by protein capillary electrophoresis method relative to control; format: cell-based
[7] = biological target: T1, von Hippel-Lindau disease tumor suppressor/Focal adhesion kinase 1; assay: Protac activity at VHL/PTK2 in human A549 cells assessed as induction of PTK2 degradation incubated for 18 hrs by protein capillary electrophoresis method relative to control; format: cell-based
[8] = biological target: T1, von Hippel-Lindau disease tumor suppressor/Focal adhesion kinase 1; assay: Protac activity at VHL/PTK2 in human SNU-398 cells assessed as induction of PTK2 degradation incubated for 18 hrs by protein capillary electrophoresis method; format: cell-based
Target sequence in this assay (Q05397 whole entry): as the sequence (Q05397 whole entry) above
Target sequence in this assay (P40337 whole entry): as the sequence (P40337 whole entry) above

[9] = biological target: T1, von Hippel-Lindau disease tumor suppressor/Focal adhesion kinase 1; assay: Protac activity at VHL/PTK2 in human Huh-7 cells assessed as induction of PTK2 degradation incubated for 18 hrs by protein capillary electrophoresis method; format: cell-based
Target sequence in this assay (Q05397 whole entry): as the sequence (Q05397 whole entry) above
Target sequence in this assay (P40337 whole entry): as the sequence (P40337 whole entry) above

[10] = biological target: Focal adhesion kinase 1 (Homo sapiens, UniProt Q05397); assay: Inhibition of PTK2 (unknown origin) at 1 uM relative to control
[11] = biological target: T1, von Hippel-Lindau disease tumor suppressor/Focal adhesion kinase 1; assay: Protac activity at VHL/PTK2 in human HuCCT-1 cells assessed as induction of PTK2 degradation incubated for 18 hrs by protein capillary electrophoresis method; format: cell-based
Target sequence in this assay (Q05397 whole entry): as the sequence (Q05397 whole entry) above
Target sequence in this assay (P40337 whole entry): as the sequence (P40337 whole entry) above

[12] = biological target: T1, von Hippel-Lindau disease tumor suppressor/Focal adhesion kinase 1; assay: Protac activity at VHL/PTK2 in human SNU-423 cells assessed as induction of PTK2 degradation incubated for 18 hrs by protein capillary electrophoresis method; format: cell-based
Target sequence in this assay (Q05397 whole entry): as the sequence (Q05397 whole entry) above
Target sequence in this assay (P40337 whole entry): as the sequence (P40337 whole entry) above

[13] = biological target: T1, von Hippel-Lindau disease tumor suppressor/Focal adhesion kinase 1; assay: Protac activity at VHL/PTK2 in human HepG2 cells assessed as induction of PTK2 degradation incubated for 18 hrs by protein capillary electrophoresis method relative to control; format: cell-based
[14] = biological target: T1, von Hippel-Lindau disease tumor suppressor/Focal adhesion kinase 1; assay: Protac activity at VHL/PTK2 in human Hep3B2.1-7 cells assessed as induction of PTK2 degradation incubated for 18 hrs by protein capillary electrophoresis method relative to control; format: cell-based; details: Hep3B
[15] = biological target: T1, von Hippel-Lindau disease tumor suppressor/Focal adhesion kinase 1; assay: Protac activity at VHL/PTK2 in human A549 cells assessed as induction of PTK2 degradation incubated for 18 hrs by protein capillary electrophoresis method; format: cell-based
[16] = biological target: T1, von Hippel-Lindau disease tumor suppressor/Focal adhesion kinase 1; assay: Protac activity at VHL/PTK2 in human HuCCT-1 cells assessed as induction of PTK2 degradation incubated for 18 hrs by protein capillary electrophoresis method relative to control; format: cell-based
[17] = biological target: T1, von Hippel-Lindau disease tumor suppressor/Focal adhesion kinase 1; assay: Protac activity at VHL/PTK2 in human SK-HEP1 cells assessed as induction of PTK2 degradation incubated for 18 hrs by protein capillary electrophoresis method relative to control; format: cell-based
[18] = biological target: T2, Protein cereblon/Focal adhesion kinase 1 (Homo sapiens, UniProt Q05397+Q96SW2); assay: Protac activity at CRBN/PTK2 in human HuCCT-1 cells assessed as induction of PTK2 degradation incubated for 18 hrs by protein capillary electrophoresis method; format: cell-based
[19] = biological target: T2, Protein cereblon/Focal adhesion kinase 1; assay: Protac activity at CRBN/PTK2 in human HuH-1 cells assessed as induction of PTK2 degradation incubated for 18 hrs by protein capillary electrophoresis method relative to control; format: cell-based
Target sequence in this assay (Q05397 2-1052 limits assumed): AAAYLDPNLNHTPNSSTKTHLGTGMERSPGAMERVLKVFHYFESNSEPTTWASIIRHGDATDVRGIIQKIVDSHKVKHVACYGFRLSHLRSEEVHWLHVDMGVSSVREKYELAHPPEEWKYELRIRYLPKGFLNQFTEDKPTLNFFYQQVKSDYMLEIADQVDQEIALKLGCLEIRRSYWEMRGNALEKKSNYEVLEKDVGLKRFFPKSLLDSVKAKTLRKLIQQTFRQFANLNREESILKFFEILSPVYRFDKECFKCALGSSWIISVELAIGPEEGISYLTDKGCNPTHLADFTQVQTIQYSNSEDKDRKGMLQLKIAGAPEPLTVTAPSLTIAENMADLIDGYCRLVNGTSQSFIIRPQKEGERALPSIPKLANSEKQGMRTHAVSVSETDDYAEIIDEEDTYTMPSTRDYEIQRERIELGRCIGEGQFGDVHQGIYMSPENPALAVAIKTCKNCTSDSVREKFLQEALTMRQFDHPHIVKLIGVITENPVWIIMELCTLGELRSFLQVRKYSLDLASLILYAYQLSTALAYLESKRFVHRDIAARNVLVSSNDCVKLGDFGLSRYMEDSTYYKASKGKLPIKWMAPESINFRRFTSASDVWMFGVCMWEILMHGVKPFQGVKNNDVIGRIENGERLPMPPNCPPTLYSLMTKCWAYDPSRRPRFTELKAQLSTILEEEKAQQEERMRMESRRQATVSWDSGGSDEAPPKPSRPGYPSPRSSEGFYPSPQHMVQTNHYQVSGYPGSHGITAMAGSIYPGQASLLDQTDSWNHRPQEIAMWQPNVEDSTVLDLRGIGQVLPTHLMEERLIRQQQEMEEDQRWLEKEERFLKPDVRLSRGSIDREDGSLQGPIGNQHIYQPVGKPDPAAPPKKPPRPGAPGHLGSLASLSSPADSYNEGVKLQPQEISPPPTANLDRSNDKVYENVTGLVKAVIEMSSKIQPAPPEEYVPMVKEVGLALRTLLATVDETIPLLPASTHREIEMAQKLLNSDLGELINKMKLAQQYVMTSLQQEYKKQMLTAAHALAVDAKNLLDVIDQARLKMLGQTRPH
Target sequence in this assay (Q96SW2 whole entry partner): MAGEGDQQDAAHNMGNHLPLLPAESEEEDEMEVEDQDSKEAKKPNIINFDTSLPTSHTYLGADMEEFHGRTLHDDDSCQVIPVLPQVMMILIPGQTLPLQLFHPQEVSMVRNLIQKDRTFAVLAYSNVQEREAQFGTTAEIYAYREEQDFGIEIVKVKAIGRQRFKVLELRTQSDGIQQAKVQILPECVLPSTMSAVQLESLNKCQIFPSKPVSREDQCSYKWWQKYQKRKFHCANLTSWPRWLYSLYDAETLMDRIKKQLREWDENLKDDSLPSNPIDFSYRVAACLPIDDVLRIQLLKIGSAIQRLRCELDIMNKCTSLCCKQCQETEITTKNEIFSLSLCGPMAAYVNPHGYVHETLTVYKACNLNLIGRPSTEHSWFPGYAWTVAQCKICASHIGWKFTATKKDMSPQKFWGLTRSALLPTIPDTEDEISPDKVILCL

[20] = biological target: T2, Protein cereblon/Focal adhesion kinase 1; assay: Protac activity at CRBN/PTK2 in human A549 cells assessed as induction of PTK2 degradation incubated for 18 hrs by protein capillary electrophoresis method; format: cell-based
[21] = biological target: T2, Protein cereblon/Focal adhesion kinase 1; assay: Protac activity at CRBN/PTK2 in human Hep3B2.1-7 cells assessed as induction of PTK2 degradation incubated for 18 hrs by protein capillary electrophoresis method relative to control; format: cell-based; details: Hep3B
Target sequence in this assay (Q05397 2-1052 limits assumed): as the sequence (Q05397 2-1052 limits assumed) above
Target sequence in this assay (Q96SW2 whole entry partner): as the sequence (Q96SW2 whole entry partner) above

[22] = biological target: T2, Protein cereblon/Focal adhesion kinase 1; assay: Protac activity at CRBN/PTK2 in human A549 cells assessed as induction of PTK2 degradation at 1 to 100000 nM incubated for 18 hrs in presence of NEDD8 inhibitor […] by protein capillary electrophoresis method; format: cell-based; details: dose 1-100000 nM
Target sequence in this assay (Q05397 2-1052 limits assumed): as the sequence (Q05397 2-1052 limits assumed) above
Target sequence in this assay (Q96SW2 whole entry partner): as the sequence (Q96SW2 whole entry partner) above

[23] = Stability in DMSO as solid form; format: physicochemical
[24] = biological target: T2, Protein cereblon/Focal adhesion kinase 1; assay: Protac activity at CRBN/PTK2 in human SNU-387 cells assessed as induction of PTK2 degradation incubated for 18 hrs by protein capillary electrophoresis method relative to control; format: cell-based
Target sequence in this assay (Q05397 2-1052 limits assumed): as the sequence (Q05397 2-1052 limits assumed) above
Target sequence in this assay (Q96SW2 whole entry partner): as the sequence (Q96SW2 whole entry partner) above

[25] = biological target: T2, Protein cereblon/Focal adhesion kinase 1; assay: Protac activity at CRBN/PTK2 in human Hep3B2.1-7 cells assessed as induction of PTK2 degradation incubated for 18 hrs by protein capillary electrophoresis method; format: cell-based; details: hep3b
[26] = biological target: T2, Protein cereblon/Focal adhesion kinase 1; assay: Protac activity at CRBN/PTK2 in human SNU-398 cells assessed as induction of PTK2 degradation incubated for 18 hrs by protein capillary electrophoresis method; format: cell-based
[27] = biological target: T2, Protein cereblon/Focal adhesion kinase 1; assay: Protac activity at CRBN/PTK2 in human HuCCT-1 cells assessed as induction of PTK2 degradation incubated for 18 hrs by protein capillary electrophoresis method relative to control; format: cell-based
Target sequence in this assay (Q05397 2-1052 limits assumed): as the sequence (Q05397 2-1052 limits assumed) above
Target sequence in this assay (Q96SW2 whole entry partner): as the sequence (Q96SW2 whole entry partner) above

[28] = biological target: T2, Protein cereblon/Focal adhesion kinase 1; assay: Protac activity at CRBN/PTK2 in human HLE cells assessed as induction of PTK2 degradation incubated for 18 hrs by protein capillary electrophoresis method relative to control; format: cell-based
Target sequence in this assay (Q05397 2-1052 limits assumed): as the sequence (Q05397 2-1052 limits assumed) above
Target sequence in this assay (Q96SW2 whole entry partner): as the sequence (Q96SW2 whole entry partner) above

[29] = biological target: T2, Protein cereblon/Focal adhesion kinase 1; assay: Protac activity at CRBN/PTK2 in human HLE cells assessed as induction of PTK2 degradation incubated for 18 hrs by protein capillary electrophoresis method; format: cell-based
[30] = biological target: T2, Protein cereblon/Focal adhesion kinase 1; assay: Protac activity at CRBN/PTK2 in human HLF1 cells assessed as induction of PTK2 degradation incubated for 18 hrs by protein capillary electrophoresis method; format: cell-based
[31] = biological target: T2, Protein cereblon/Focal adhesion kinase 1; assay: Protac activity at CRBN/PTK2 in human A549 cells assessed as time required for maximal induction of PTK2 degradation at 3 uM by protein capillary electrophoresis method; format: cell-based
[32] = biological target: T2, Protein cereblon/Focal adhesion kinase 1; assay: Protac activity at CRBN/PTK2 in human HuH-1 cells assessed as induction of PTK2 degradation incubated for 18 hrs by protein capillary electrophoresis method; format: cell-based
[33] = biological target: T2, Protein cereblon/Focal adhesion kinase 1; assay: Protac activity at CRBN/PTK2 in human HepG2 cells assessed as induction of PTK2 degradation incubated for 18 hrs by protein capillary electrophoresis method relative to control; format: cell-based
[34] = biological target: T2, Protein cereblon/Focal adhesion kinase 1; assay: Protac activity at CRBN/PTK2 in human SNU-398 cells assessed as induction of PTK2 degradation incubated for 18 hrs by protein capillary electrophoresis method relative to control; format: cell-based
[35] = biological target: T2, Protein cereblon/Focal adhesion kinase 1; assay: Protac activity at CRBN/PTK2 in human SK-HEP1 cells assessed as induction of PTK2 degradation incubated for 18 hrs by protein capillary electrophoresis method relative to control; format: cell-based

Chain of Focal adhesion kinase 1 (Q05397 2-1052 limits assumed): as the sequence (Q05397 2-1052 limits assumed) above

pDC50 [1]: 6.9
TIME [2]: 20 h
pDC50 [3]: 7.6
Emax [4]: 79%
Emax [5]: 87%
Emax [6]: 85%
Emax [7]: 80%
pDC50 [8]: 8
pDC50 [9]: 7
inhibition [10]: > 90%
pDC50 [11]: 6.9
pDC50 [12]: 7.1
Emax [13]: 65%
Emax [14]: 59%
pDC50 [15]: 6.7
Emax [16]: 86%
Emax [17]: 87%
SMILES: COc1cc(C(=O)NCCOCCOCCOCC(=O)N[C@H](C(=O)N2C[C@H](O)C[C@H]2C(=O)NCc2ccc(-c3scnc3C)cc2)C(C)(C)C)ccc1Nc1ncc(C(F)(F)F)c(Oc2cccc3c2C(=O)CC3)n1

pDC50 [18]: 7.9
Emax [19]: 50%
pDC50 [20]: 7.6
Emax [21]: 96%
Activity [22]: inactive
Stabilty [23]: > 3 months
Emax [24]: 90%
pDC50 [25]: 7.9
pDC50 [26]: 8.5
Emax [27]: 90%
Emax [28]: 79%
pDC50 [29]: 6.8
pDC50 [30]: 6.4
TIME [31]: 18 h
pDC50 [32]: 6.6
Emax [33]: 89%
Emax [34]: 95%
Emax [35]: 89%
SMILES: COc1cc(C(=O)NCCOCCOCCOCCC(=O)Nc2cccc3c2C(=O)N(C2CCC(=O)NC2=O)C3=O)ccc1Nc1ncc(C(F)(F)F)c(Oc2cccc3c2C(=O)CC3)n1 (stereo not given)

Reference: ChEMBL document CHEMBL4673225, “Highly Selective PTK2 Proteolysis Targeting Chimeras to Probe Focal Adhesion Kinase Scaffolding Functions” (J Med Chem, 2019)
